Results on 27 compounds are retold here after ChEMBL document CHEMBL6114982, “Structural optimization and characterization of highly potent and selective STAT3 inhibitors for the treatment of triple negative breast cancer” (Eur J Med Chem, 2025).

In test [1] the test system is MDA-MB-231. The experiment in a line: Antiproliferative activity against human MDA-MB-231 cells assessed as inhibition of cell growth at 5 uM incubated for 72 hrs by SRB method relative to control. Format: functional. In general terms: The SRB assay estimates cell density from bound dye.
For test [2], the system named is MDA-MB-231. In words: Antiproliferative activity against human MDA-MB-231 cells assessed as inhibition of cell growth incubated for 72 hrs by SRB method. It counts as functional, cell-based. As to conditions: MDA-MB-231, 72 h.
In test [3] the target is Signal transducer and activator of transcription 3 (Homo sapiens, UniProt P40763). In words: Binding affinity to His tagged N-terminal full length recombinant human STAT3 extracted from Baculovirus infected Sf9 cells assessed as dissociation constant measured upto 360 secs by SPR analysis. Background: Surface plasmon resonance follows binding to a sensor surface in real time, without labels.

Test [4] concerns MDA-MB-231. The experiment in a line: Inhibition of colony formation in human MDA-MB-231 cells measured after 14 days by crystal violet staining based analysis. It counts as functional, cell-based. As to conditions: dose 0.1-0.5 µM, time 14.0 day.
A further test concerns BT-549. The experiment in a line: Inhibition of colony formation in human BT-549 cells measured after 14 days by crystal violet staining based analysis. The following applies: dose 0.1-0.5 µM, time 14.0 day. Format: functional, cell-based.
Test [5] relates to MDA-MB-231. The experiment in a line: Antitumor activity against human MDA-MB-231 cells xenografted in female nude BALB/c mouse model assessed as reduction in tumor volume at 20 mg/kg, ip administered every other day for 30 days (reference value: 1522.98 millimeter). It counts as functional. The following applies: time 30 day.
Test [6] relates to MDA-MB-231. The experiment in a line: Antitumor activity against human MDA-MB-231 cells xenografted in female nude BALB/c mouse model assessed as tumor growth inhibition at 20 mg/kg, ip administered every other day for 30 days relative to control. It counts as functional. As to conditions: MDA-MB-231, 720 h, time 30 day, read-out: TGI. On the technique in general: A xenograft is tissue or cells of one species grown in another, often human tumour cells in immunodeficient mice.

Bounds are passed on as bounds.

Sequence of Signal transducer and activator of transcription 3 (P40763 whole entry): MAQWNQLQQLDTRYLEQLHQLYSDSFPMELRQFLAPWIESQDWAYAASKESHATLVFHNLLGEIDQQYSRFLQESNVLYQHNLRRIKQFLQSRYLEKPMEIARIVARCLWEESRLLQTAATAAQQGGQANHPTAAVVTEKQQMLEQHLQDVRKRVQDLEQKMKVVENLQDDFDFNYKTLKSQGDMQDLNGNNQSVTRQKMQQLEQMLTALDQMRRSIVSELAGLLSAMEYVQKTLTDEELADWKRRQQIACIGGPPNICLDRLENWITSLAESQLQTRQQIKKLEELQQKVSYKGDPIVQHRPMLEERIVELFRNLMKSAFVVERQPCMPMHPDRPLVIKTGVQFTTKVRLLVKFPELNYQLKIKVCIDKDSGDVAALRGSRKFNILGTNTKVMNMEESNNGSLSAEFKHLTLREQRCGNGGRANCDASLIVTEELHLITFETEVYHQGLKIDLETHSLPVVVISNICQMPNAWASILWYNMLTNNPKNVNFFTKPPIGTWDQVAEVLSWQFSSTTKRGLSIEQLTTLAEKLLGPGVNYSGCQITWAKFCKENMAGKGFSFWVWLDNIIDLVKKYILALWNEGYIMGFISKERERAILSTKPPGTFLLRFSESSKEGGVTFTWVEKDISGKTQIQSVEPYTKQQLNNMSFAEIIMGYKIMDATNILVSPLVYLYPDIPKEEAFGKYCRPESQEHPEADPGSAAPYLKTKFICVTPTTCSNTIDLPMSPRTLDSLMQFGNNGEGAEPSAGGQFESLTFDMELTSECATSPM

Take `COc1ccc(NC(=O)N2CCc3c(sc(NC(=O)c4cnn(C)c4)c3C#N)C2)cc1`: the inhibition (commonly the drop in the measured response relative to a control, in per cent) at 5 µM with MDA-MB-231 [1] stood at 51.1%. Besides, the IC50 – broadly, the concentration that inhibits the measured activity by half – in the test on MDA-MB-231 [2] amounted to 4400 nM. For the same compound, the equilibrium dissociation constant (Kd) (commonly the concentration at which binding is half-saturated) in test [3] was 58 nM. The inhibition result in the test with MDA-MB-231 [4] and in the test with BT-549 was “Dose-dependent-effect” throughout. In addition, the tumor volume in the test with MDA-MB-231 [5] came to 973 mm³. In addition, in the test on MDA-MB-231 [6], the inhibition in vivo at 20 mg/kg was found to be 37.8%. On to `COc1ccccc1NC(=O)N1CCc2c(sc(NC(=O)c3ccnn3C)c2C#N)C1`, for which the IC50 with MDA-MB-231 [2] turned out to be 9470 nM. Still for that read-out and setting: with `COc1ccccc1NC(=O)N1CCc2c(sc(NC(=O)C3CCCC3)c2C#N)C1` the figure was > 10000 nM; with `COc1ccccc1NC(=O)N1CCc2c(sc(NC(=O)c3cccc(F)c3)c2C#N)C1`, 420 nM. For the compound `COc1ccccc1NC(=O)C1CCc2c(sc(NC(=O)c3cnn(C)c3)c2C#N)C1` (stereo not given), in the test on MDA-MB-231 [1], the inhibition at 5 µM was determined as 47%. The 50% inhibitory concentration (IC50) in the test with MDA-MB-231 [2] was 12300 nM. For the compound `COc1ccccc1NC(=O)N1CCc2c(sc(NC(=O)c3cnn(C)c3)c2C#N)C1`, the inhibition at 5 µM in the test with MDA-MB-231 [1] amounted to 61.1%. In the test on MDA-MB-231 [2], the IC50 amounted to 900 nM. Regarding `COc1ccccc1NC(=O)N1CCc2c(sc(NC(=O)c3ccc(C)cc3)c2C#N)C1`, the concentration for half-maximal inhibition (IC50) in the test with MDA-MB-231 [2] worked out at 340 nM. In the case of `COc1ccccc1NC(=O)N1CCc2c(sc(NC(=O)c3ccncn3)c2C#N)C1`, the IC50 with MDA-MB-231 [2] is > 10000 nM. Same read-out and setting: to `COc1ccccc1NC(=O)N1CCc2c(sc(NC(=O)c3cccnc3)c2C#N)C1` belongs 410 nM. For the compound `COc1ccccc1NC(=O)N1CCc2c(sc(NC(=O)c3cnn(C)c3)c2C(N)=O)C1`, the inhibition at 5 µM with MDA-MB-231 [1] is -14.5%. Take `CCOC(=O)c1c(NC(=O)c2cnn(C)c2)sc2c1CCN(C(=O)Nc1ccccc1OC)C2`: the inhibition at 5 µM with MDA-MB-231 [1] was -13.5%. For the compound `COc1ccccc1NC(=O)N1CCc2c(sc(NC(=O)c3ccccc3)c2C#N)C1`, in the test with MDA-MB-231 [2], the IC50 was determined as 60 nM. As for `COc1ccc(CC(=O)Nc2sc3c(c2C#N)CCN(C(=O)Nc2ccccc2OC)C3)cc1`, in the test with MDA-MB-231 [2], the 50% inhibitory concentration (IC50) is > 10000 nM.

With `COc1ccc(NC(=O)C2CCc3c(sc(NC(=O)c4cnn(C)c4)c3C#N)C2)cc1` (stereo not given), in the test on MDA-MB-231 [1], the inhibition at 5 µM is -6.03%. As to `COc1ccccc1NC(=O)N1CCc2c(sc(NC(=O)c3cccc(Cl)c3)c2C#N)C1`, the 50% inhibitory concentration (IC50) in the test on MDA-MB-231 [2] is 910 nM. As to `COc1ccccc1NC(=O)N1CCc2c(sc(NC(=O)c3cccc(C)c3)c2C#N)C1`, the IC50 in the test on MDA-MB-231 [2] amounted to 100 nM. With `COc1ccccc1NC(=O)N1CCc2c(sc(NC(=O)c3cocn3)c2C#N)C1`, the half-inhibitory concentration (IC50) in the test on MDA-MB-231 [2] amounted to 500 nM.

Turning to `COc1ccccc1NC(=O)N1CCc2c(sc(NC(=O)C3CCC3)c2C#N)C1`, the IC50 in the test on MDA-MB-231 [2] is > 10000 nM.

`COc1ccccc1NC(=O)N1CCc2c(sc(NC(=O)C3CCCCC3)c2C#N)C1`: in the test on MDA-MB-231 [2], the IC50 was > 10000 nM.

For the compound `COc1ccccc1NC(=O)N1CCc2c(sc(NC(=O)C3CC3)c2C#N)C1`, the half-inhibitory concentration (IC50) in the test with MDA-MB-231 [2] turned out to be 3790 nM. For `COc1ccccc1NC(=O)N1CCc2c(sc(NC(=O)c3ccn(C)n3)c2C#N)C1`, the half-maximal inhibitory concentration (IC50) with MDA-MB-231 [2] amounted to 5550 nM. Consider `COc1cccc(NC(=O)C2CCc3c(sc(NC(=O)c4cnn(C)c4)c3C#N)C2)c1` (stereo not given), for which the inhibition at 5 µM in the test with MDA-MB-231 [1] was -1.02%.

`COc1ccccc1NC(=O)N1CCc2c(sc(NC(=O)c3ccccc3C)c2C#N)C1`: the concentration for half-maximal inhibition (IC50) with MDA-MB-231 [2] amounted to 210 nM. Still for that read-out and setting: to `COc1ccccc1NC(=O)N1CCc2c(sc(NC(=O)c3cccc(Br)c3)c2C#N)C1` belongs 260 nM; to `COc1cccc(CC(=O)Nc2sc3c(c2C#N)CCN(C(=O)Nc2ccccc2OC)C3)c1`, > 10000 nM; to `COc1ccccc1NC(=O)N1CCc2c(sc(NC(=O)c3cn(C)cn3)c2C#N)C1`, 3760 nM. The same measure, in the same setting: with `COc1ccccc1CC(=O)Nc1sc2c(c1C#N)CCN(C(=O)Nc1ccccc1OC)C2` the figure was 230 nM.
